The record followed here is patent US8101774B2, “Ester derivatives and medicinal use thereof” (Japan Tobacco Inc., priority 2004, dated 2012).

Bounds are passed on as bounds.

The assay concerns the target T1, Microsomal triglyceride transfer protein (MTP) from human small intestine microsome (Homo sapiens, UniProt P55157).
T1 construct: Human small intestine microsome was dialyzed against 10 mM phosphate buffer; tissue Tissue Transforming Technologies, Inc; host or cells: human small intestine microsome
Put plainly: Inhibition test of interliposomal triglyceride (TG) transfer activity by MTP. In kind it is biochemical. The following applies: purified MTP from human small intestine microsome, 37° C., 1.5 hours. On the procedure: Microsomal triglyceride transfer protein (MTP) from human small intestine microsome (manufactured by Tissue Transforming Technologies, Inc.) was purified in such a way described below. Human small intestine microsome was dialyzed against 10 mM phosphate buffer (300 mL, pH 6.8) twice for about 2 hours and once for further not less than 12 hours, at about 4° C. After dialysis, the mixture was centrifuged at 4° C. and 15,000×g for 5 minutes and then the supernatant was recovered. The previously recovered supernatant was purified by column chromatography on diethylaminoethyl (DEAE) Sepharose using FPLC (Fast Performance Liquid Chromatography) system, and the purified MTP was used for the test as described below.
Small unilamellar-vesicle (SUV) liposome (hereinafter described as donor, containing 0.25% (mol/mol) triolein and 5% (mol/mol) cardiolipin) constituted by triolein labeled with ^14C and non-labeled SUV liposome (hereinafter described as acceptor, containing […] triolein) were prepared in such a way described below.
Firstly, in order to prepare the donor, there were volatilized under a stream of nitrogen gas a phosphatidylcholine solution containing phosphatidylcholine labeled with ^3H, a cardiolipin solution, and a triolein solution containing triolein labeled with ^14C (each solution had been already dissolved in an appropriate organic solvent), or in order to prepare the acceptor, there were volatilized under nitrogen flow a phosphatidylcholine solution containing phosphatidylcholine labeled with ^3H and a cardiolipin solution (each solution had been already dissolved in an appropriate organic solvent). An appropriate amount of a reaction buffer (15 mM Tris-HCl buffer containing 1 mM EDTA.Na2, 40 mM NaCl, and 0.5% (w/v) bovine serum albumin, pH 7.4) was added thereto to be emulsified. The emulsions were treated with ultrasonication under ice-cooling and centrifuged at 4° C. and 159,000×g for 2 hours. Each of the resulting supernatant was used for donor or acceptor.
Each radioactivity in the acceptor and the donor was measured by liquid scintillation counter, and a mixed solution of the acceptor and the donor was prepared with a reaction buffer so as to be a donor-derived radioactivity of 16,000 dpm/400 μL and a acceptor-derived radioactivity of 4,000 dpm/[…]. 400 μL of the mixed solution of the donor and the acceptor, 45 μL of the reaction buffer, 50 μL of MTP (20 μg/mL), and 5 μL of a sample dissolved in DMSO (dimethyl sulfoxide) or 5 μL of DMSO was mixed (total amount: 500 μL). The mixture was incubated at 37° C. for 1.5 hours. After completion of the incubation, 1.25 mL of a suspension of DEAE cellulose (66.7% (v/v)) in 15 mM Tris-HCl buffer (pH 7.4) containing 1 mM EDTA.Na2 was added to the above solution. The mixture was centrifuged to separate the donor (adsorbed on the DEAE cellulose to precipitate) and the acceptor (the supernatant). The radioactivity in the acceptor was measured by liquid scintillation counter. The value obtained by subtracting the radioactivity in a blank group from the radioactivity in the acceptor of a DMSO group was determined as MTP-mediated TG transfer activity, and it was compared with the value obtained by subtracting the radioactivity in the blank group from the radioactivity in a sample group. Here, the blank was prepared by adding 10 mM phosphate buffer (pH 6.8) containing 250 mM NaCl in place of MTP. Inhibition rate (%) was calculated from values obtained according to the following equation. Inhibition rate(%)=(1 minus((radioactivity of sample group minus radioactivity of blank group)/(radioactivity of DMSO group minus radioactivity of blank group)))×100.
50% Inhibition rate (IC50) was determined on the basis of the above equation.

T1 sequence (P55157 19-894): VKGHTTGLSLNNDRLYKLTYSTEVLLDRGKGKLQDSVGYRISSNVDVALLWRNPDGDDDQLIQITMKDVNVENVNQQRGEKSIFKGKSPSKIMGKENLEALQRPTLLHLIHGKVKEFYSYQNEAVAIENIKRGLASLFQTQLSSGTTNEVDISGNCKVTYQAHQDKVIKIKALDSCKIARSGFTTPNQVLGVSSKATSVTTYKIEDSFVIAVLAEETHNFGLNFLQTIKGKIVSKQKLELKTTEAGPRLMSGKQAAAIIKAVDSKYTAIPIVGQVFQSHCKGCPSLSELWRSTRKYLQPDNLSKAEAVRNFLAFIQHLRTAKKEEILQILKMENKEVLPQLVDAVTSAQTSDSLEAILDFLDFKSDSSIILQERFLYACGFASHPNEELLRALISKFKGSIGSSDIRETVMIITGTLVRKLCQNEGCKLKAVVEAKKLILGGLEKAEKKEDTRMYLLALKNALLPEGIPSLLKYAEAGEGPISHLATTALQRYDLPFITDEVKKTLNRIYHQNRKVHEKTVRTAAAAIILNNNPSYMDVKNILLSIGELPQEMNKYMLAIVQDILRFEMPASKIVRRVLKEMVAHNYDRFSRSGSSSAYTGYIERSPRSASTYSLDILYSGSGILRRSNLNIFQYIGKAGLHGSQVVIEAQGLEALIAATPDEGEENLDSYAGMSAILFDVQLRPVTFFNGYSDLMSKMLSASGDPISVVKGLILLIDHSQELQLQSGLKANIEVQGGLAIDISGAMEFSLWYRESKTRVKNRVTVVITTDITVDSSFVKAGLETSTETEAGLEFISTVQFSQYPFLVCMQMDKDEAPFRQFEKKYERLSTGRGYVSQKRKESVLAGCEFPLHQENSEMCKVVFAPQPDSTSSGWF
T1 sequence (P07237 18-508 partner): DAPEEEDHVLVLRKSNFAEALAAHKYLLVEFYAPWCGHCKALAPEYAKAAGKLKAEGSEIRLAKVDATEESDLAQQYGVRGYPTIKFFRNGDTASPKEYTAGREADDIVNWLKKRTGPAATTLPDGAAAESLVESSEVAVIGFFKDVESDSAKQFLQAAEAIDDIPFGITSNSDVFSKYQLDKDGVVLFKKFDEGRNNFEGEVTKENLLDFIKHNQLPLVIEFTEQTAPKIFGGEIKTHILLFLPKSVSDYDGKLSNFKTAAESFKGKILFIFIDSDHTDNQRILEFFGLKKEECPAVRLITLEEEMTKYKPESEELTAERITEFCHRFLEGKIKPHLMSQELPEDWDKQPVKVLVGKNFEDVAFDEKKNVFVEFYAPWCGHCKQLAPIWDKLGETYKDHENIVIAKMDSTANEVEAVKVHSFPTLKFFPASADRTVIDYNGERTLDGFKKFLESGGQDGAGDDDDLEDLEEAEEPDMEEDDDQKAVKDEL

`COC(=O)c1ccc(OC(=O)CCCc2ccc(NC(=O)c3ccc(C)nc3-c3ccc(C(F)(F)F)cc3)c(C(=O)N(C)C)c2)cn1` [Compound 1-32, 5-[4-(3-dimethylcarbamoyl-4-{[6-methyl-2-(4-trifluoromethylphenyl)pyridine-3-carbonyl]amino}phenyl)butyryloxy]pyridine-2-carboxylic acid methyl ester]: the IC50 (in general, the point on the concentration scale where inhibition reaches its midpoint) lay in the range of 100 to 1000 nM. For `COC(=O)c1ccc(OC(=O)CCCc2ccc(NC(=O)c3ccccc3-c3ccc(C(F)(F)F)cc3)c(C(=O)N(C)C)c2)c(C(=O)OC)c1` [Compound 1-33, 4-(4-{3-dimethylcarbamoyl-4-[(4′-trifluoromethylbiphenyl-2-carbonyl)amino]phenyl}butyryloxy)isophthalic acid dimethyl ester], the IC50 is < 10 nM. Regarding `COC(=O)c1cc(C)c(OC(=O)CCCc2ccc(NC(=O)c3ccccc3-c3ccc(C(F)(F)F)cc3)c(C(=O)N(C)C)c2)c(Cl)c1` [Compound 1-34, 3-chloro-4-(4-{3-dimethylcarbamoyl-4-[(4′-trifluoromethylbiphenyl-2-carbonyl)amino]phenyl}butyryloxy)-5-methylbenzoic acid methyl ester], the IC50 was < 10 nM.

On to `COC(=O)c1cc(C)c(OC(=O)CCCc2ccc(NC(=O)c3ccc(C)nc3-c3ccc(C(F)(F)F)cc3)c(C(=O)N(C)C)c2)c(Cl)c1` [Compound 1-35, 3-chloro-4-[4-(3-dimethylcarbamoyl-4-{[6-methyl-2-(4-trifluoromethylphenyl)pyridine-3-carbonyl]amino}phenyl)butyryloxy]-5-methylbenzoic acid methyl ester], for which the IC50 is < 10 nM. The same measure for `COC(=O)c1cc(Cl)c(OC(=O)CCCc2ccc(NC(=O)c3ccc(C)nc3-c3ccc(C(F)(F)F)cc3)c(C(=O)N(C)C)c2)c(OC)c1` [Compound 1-36, 3-chloro-4-[4-(3-dimethylcarbamoyl-4-{[6-methyl-2-(4-trifluoromethylphenyl)pyridine-3-carbonyl]amino}phenyl)butyryloxy]-5-methoxybenzoic acid methyl ester]: < 10 nM; for `COc1cc(C(=O)OC(C)C)cc(Cl)c1OC(=O)CCCc1ccc(NC(=O)c2ccc(C)nc2-c2ccc(C(F)(F)F)cc2)c(C(=O)N(C)C)c1` [Compound 1-37, 3-chloro-4-[4-(3-dimethylcarbamoyl-4-{[6-methyl-2-(4-trifluoromethylphenyl)pyridine-3-carbonyl]amino}phenyl)butyryloxy]-5-methoxybenzoic acid isopropyl ester]: < 10 nM. The result for `COc1cc(C(=O)OC(C)C)cc(F)c1OC(=O)CCCc1ccc(NC(=O)c2ccc(C)nc2-c2ccc(C(F)(F)F)cc2)c(C(=O)N(C)C)c1` [Compound 1-38, 4-[4-(3-dimethylcarbamoyl-4-{[6-methyl-2-(4-trifluoromethylphenyl)pyridine-3-carbonyl]amino}phenyl)butyryloxy]-3-fluoro-5-methoxybenzoic acid isopropyl ester] reads 10 to 100 nM; that for `COC(=O)c1cc(OC)c(OC(=O)CCCc2ccc(NC(=O)c3ccc(C)nc3-c3ccc(C(F)(F)F)cc3)c(C(=O)N(C)C)c2)c(OC)c1` [Compound 1-39, 4-[4-(3-dimethylcarbamoyl-4-{[6-methyl-2-(4-trifluoromethylphenyl)pyridine-3-carbonyl]amino}phenyl)butyryloxy]-3,5-dimethoxybenzoic acid methyl ester], < 10 nM. As to `CCOc1cc(C(=O)OC)cc(Cl)c1OC(=O)CCCc1ccc(NC(=O)c2ccc(C)nc2-c2ccc(C(F)(F)F)cc2)c(C(=O)N(C)C)c1` [Compound 1-40, 3-chloro-4-[4-(3-dimethylcarbamoyl-4-{[6-methyl-2-(4-trifluoromethylphenyl)pyridine-3-carbonyl]amino}phenyl)butyryloxy]-5-ethoxybenzoic acid methyl ester], the IC50 is < 10 nM. The same measure for `COC(=O)c1cc(C)c(OC(=O)CCCc2ccc(NC(=O)c3ccc(C)nc3-c3ccc(C(F)(F)F)cc3)c(C(=O)N(C)C)c2)c(F)c1` [Compound 1-41, 4-[4-(3-dimethylcarbamoyl-4-{[6-methyl-2-(4-trifluoromethylphenyl)pyridine-3-carbonyl]amino}phenyl)butyryloxy]-3-fluoro-5-methylbenzoic acid methyl ester]: < 10 nM.

Take `CCc1cc(C(=O)OC)cc(F)c1OC(=O)CCCc1ccc(NC(=O)c2ccc(C)nc2-c2ccc(C(F)(F)F)cc2)c(C(=O)N(C)C)c1` [Compound 1-42, 4-[4-(3-dimethylcarbamoyl-4-{[6-methyl-2-(4-trifluoromethylphenyl)pyridine-3-carbonyl]amino}phenyl)butyryloxy]-3-ethyl-5-fluorobenzoic acid methyl ester]: the IC50 was < 10 nM. The result for `CCOC(=O)c1cc(OC)c(OC(=O)CCCc2ccc(NC(=O)c3ccc(C)nc3-c3ccc(C(F)(F)F)cc3)c(C(=O)N(C)C)c2)c(OC)c1` [Compound 1-43, 4-[4-(3-dimethylcarbamoyl-4-{[6-methyl-2-(4-trifluoromethylphenyl)pyridine-3-carbonyl]amino}phenyl)butyryloxy]-3,5-dimethoxybenzoic acid ethyl ester] reads < 10 nM; that for `COc1cc(C(=O)OC(C)C)cc(OC)c1OC(=O)CCCc1ccc(NC(=O)c2ccc(C)nc2-c2ccc(C(F)(F)F)cc2)c(C(=O)N(C)C)c1` [Compound 1-44, 4-[4-(3-dimethylcarbamoyl-4-{[6-methyl-2-(4-trifluoromethylphenyl)pyridine-3-carbonyl]amino}phenyl)butyryloxy]-3,5-dimethoxybenzoic acid isopropyl ester], < 10 nM; that for `COC(=O)c1cc(C)c(OC(=O)CCCc2ccc(NC(=O)c3ccc(C)nc3-c3ccc(C(F)(F)F)cc3)c(C(=O)N(C)C)c2)c(C(F)(F)F)c1` [Compound 1-45, 4-[4-(3-dimethylcarbamoyl-4-{[6-methyl-2-(4-trifluoromethylphenyl)pyridine-3-carbonyl]amino}phenyl)butyryloxy]-3-methyl-5-trifluoromethylbenzoic acid methyl ester], < 10 nM. On to `COC(=O)c1cc(C)c(OC(=O)CCCc2ccc(NC(=O)c3ccc(C)nc3-c3ccc(C(F)(F)F)cc3)c(C(=O)N(C)C)c2)c(OC)c1` [Compound 1-46, 4-[4-(3-dimethylcarbamoyl-4-{[6-methyl-2-(4-trifluoromethylphenyl)pyridine-3-carbonyl]amino}phenyl)butyryloxy]-3-methoxy-5-methylbenzoic acid methyl ester], for which the IC50 was < 10 nM. The result for `COC(=O)c1cc(OC)c(OC(=O)CCCc2ccc(NC(=O)c3ccc(C)nc3-c3ccc(C(F)(F)F)cc3)c(C(=O)N(C)C)c2)c(C(F)(F)F)c1` [Compound 1-47, 4-[4-(3-dimethylcarbamoyl-4-{[6-methyl-2-(4-trifluoromethylphenyl)pyridine-3-carbonyl]amino}phenyl)butyryloxy]-3-methoxy-5-trifluoromethylbenzoic acid methyl ester] reads < 10 nM. The result for `CCOC(=O)c1cc(Cl)c(OC(=O)CCCc2ccc(NC(=O)c3ccc(C)nc3-c3ccc(C(F)(F)F)cc3)c(C(=O)N(C)C)c2)c(OC)c1` [Compound 1-48, 3-chloro-4-[4-(3-dimethylcarbamoyl-4-{[6-methyl-2-(4-trifluoromethylphenyl)pyridine-3-carbonyl]amino}phenyl)butyryloxy]-5-methoxybenzoic acid ethyl ester] reads < 10 nM. The same measure for `CCOc1cc(C(=O)OC)cc(OC)c1OC(=O)CCCc1ccc(NC(=O)c2ccc(C)nc2-c2ccc(C(F)(F)F)cc2)c(C(=O)N(C)C)c1` [Compound 1-49, 4-[4-(3-dimethylcarbamoyl-4-{[6-methyl-2-(4-trifluoromethylphenyl)pyridine-3-carbonyl]amino}phenyl)butyryloxy]-3-ethoxy-5-methoxybenzoic acid methyl ester]: < 10 nM.
